According to patent US20150352114A1, “MITOTIC KINESIN Eg5 INHIBITING ANTICANCER AGENTS” (THE CLEVELAND CLINIC FOUNDATION, priority 2014, published 2015):

Test system: pCRMP2 (T514) in interphase GSCs
Experiment: CRMP2 phosphorylation immunoblot
Type: cell-based, human
Settings: interphase GSCs treated with microtubule agents
Procedure: FIGS. 8(A-B) illustrate that Eg5 impacts microtubule growth through the CRMP-tubulin deposition pathway; (A) 08-387 GSCs enriched in interphase were exposed to vehicle (DMSO) or ispinesib (200 nM) and harvested for whole cell lysates every two hours over a 6 hour time course. Resulting lysates were probed for CRMP2 and pCRMP2 (T514); (B) Human brain microvascular endothelial cells (HuBrMVECs) were treated with vehicle (DMSO) or ispinesib (200 nM) and harvested for whole cell lysates every three hours over a 6 hour time course. Resulting lysates were probed for CRMP2 and pCRMP2 (T514); For all immunoblots, βactin served as a loading control. Molecular weight (MW) of resulting bands is given in kilodaltons (kD).
Protein extracts were made using a 50 mM Tris pH 8.0, […] NaCl, 0.5% NP-40 lysis solution. Resulting lysates were ran on 10% SDS-PAGE gels and transferred to Immobilon-FL PVDF (Millipore Corp., Billerica, Mass.). The membranes were blocked with 5% (wt/vol) bovine serum albumin in PBS-Tween-20 (0.2% vol/vol) and probed with primary antibodies against Eg5 (mouse, 1:4000, BD Biosciences, San Jose, Calif.), Olig2 (rabbit, 1:1000, abcam, San Francisco, Calif.), GFAP (DAKO; 1:10,000, Carpinteria, Calif.), CRMP2 (mouse, 1:1000, abgent, San Diego, Calif.), pCRMP2(T514) (rabbit, 1:1000, Cell Signaling, Beverly, Mass.), or β-actin (mouse, 1:8000, Sigma-Aldrich, St. Louis, Mo.) as a loading control. Secondary antibodies (LI-COR) were incubated in TBST+0.02% SDS and visualized with the LI-COR Odyssey near infrared imaging system (Lincoln, NB).

Row | SMILES | CRMP2 phosphorylation at T514
1 | CC(=O)O[C@H]1C(=O)[C@@]2(C)[C@H]([C@H](OC(=O)c3ccccc3)[C@]3(O)C[C@H](OC(=O)[C@H](O)[C@@H](NC(=O)c4ccccc4)c4ccccc4)C(C)=C1C3(C)C)[C@]1(OC(C)=O)CO[C@@H]1C[C@@H]2O [paclitaxel] | induce CRMP2 phosphorylation at T514
2 | COC(=O)Nc1nc2ccc(C(=O)c3cccs3)cc2[nH]1 [nocodazole] | induce CRMP2 phosphorylation at T514
